According to the supplement of paper PMC6045584:
± gives the standard deviation of the averaged measurements.

Columns and labels:
[1] = compound: CCc1cc(Nc2nccc(-c3c(-c4ccc(OC)c(C(=O)Nc5c(F)cccc5F)c4)nc4ccccn34)n2)c(OC)cc1N1CCC(N2CCN(S(C)(=O)=O)CC2)CC1; test: surviving fraction relative to DMSO-only wells; higher = less growth inhibition; details: exposure time: 5 days
Summary of the method: (§1)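 Tumour cell lines were grown to log phase and seeded at 250–500 cells per well in 384-well plates. They were exposed continuously to inhibitors at 0.5, 1, 5, 10, 50, 100, 500 and 1000 nM for five days, beginning 24 hours after seeding. Surviving fraction is CellTiter-Glo luminescence normalised to the median of DMSO-only wells.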

BMN-673 = compound: Cn1ncnc1[C@H]1c2n[nH]c(=O)c3cc(F)cc(c23)N[C@@H]1c1ccc(F)cc1 [BMN-673]; test: as above; details: exposure time: 5 days
Summary of the method: as §1

Row | Test System | surviving fraction ([1]; 0.5 nM) | surviving fraction ([1]; 1 nM) | surviving fraction ([1]; 5 nM) | surviving fraction ([1]; 10 nM) | surviving fraction ([1]; 50 nM) | surviving fraction ([1]; 100 nM) | surviving fraction ([1]; 500 nM) | surviving fraction ([1]; 1000 nM) | surviving fraction (BMN-673; 0.5 nM) | surviving fraction (BMN-673; 1 nM) | surviving fraction (BMN-673; 5 nM) | surviving fraction (BMN-673; 10 nM) | surviving fraction (BMN-673; 50 nM) | surviving fraction (BMN-673; 100 nM) | surviving fraction (BMN-673; 500 nM) | surviving fraction (BMN-673; 1000 nM)
1 | SCC90 HEADNECK | 1 ± 0.084 | 1.01 ± 0.11 | 1.02 ± 0.052 | 1.1 ± 0.023 | 1.02 ± 0.046 | 1.12 ± 0.21 | 1.06 ± 0.23 | 1.14 ± 0.046 | 1.05 ± 0.046 | 1.02 ± 0.031 | 1.01 ± 0.067 | 1.02 ± 0.059 | 0.813 ± 0.04 | 0.8 ± 0.13 | 1.17 ± 0.15 | 1.15 ± 0.033
2 | NOS1 BONE | 1 ± 0.038 | 1.05 ± 0.051 | 1.16 ± 0.14 | 1.35 ± 0.26 | 1.22 ± 0.21 | 1.14 ± 0.12 | 1.12 ± 0.11 | 0.949 ± 0.043 | 1.1 ± 0.058 | 0.953 ± 0.093 | 0.683 ± 0.026 | 0.66 ± 0.066 | 0.633 ± 0.085 | 0.564 ± 0.051 | 0.551 ± 0.042 | 0.552 ± 0.026
3 | OS25HAL BONE | 0.997 ± 0.011 | 1.02 ± 0.011 | 1.032 ± 0.01 | 1.04 ± 0.037 | 1.02 ± 0.015 | 1.04 ± 0.018 | 0.948 ± 0.055 | 0.944 ± 0.05 | 1.1 ± 0.034 | 1.01 ± 0.037 | 0.96 ± 0.063 | 0.994 ± 0.017 | 0.91 ± 0.06 | 0.812 ± 0.014 | 0.327 ± 0.02 | 0.178 ± 0.021
4 | SCC47 HEADNECK | 0.99 ± 0.038 | 0.992 ± 0.047 | 1.05 ± 0.047 | 1.06 ± 0.021 | 1 ± 0.075 | 1.08 ± 0.038 | 1.04 ± 0.028 | 1.03 ± 0.04 | 1.1 ± 0.089 | 1.13 ± 0.13 | 1.13 ± 0.015 | 1.12 ± 0.058 | 1.12 ± 0.039 | 1.03 ± 0.062 | 0.937 ± 0.1 | 0.784 ± 0.1
5 | BT549 BREAST | 1.03 ± 0.098 | 1.06 ± 0.033 | 1.14 ± 0.097 | 1.13 ± 0.082 | 1.07 ± 0.1 | 1.12 ± 0.1 | 1.08 ± 0.074 | 0.852 ± 0.019 | 1.07 ± 0.05 | 1.03 ± 0.019 | 1.03 ± 0.11 | 0.797 ± 0.044 | 0.755 ± 0.051 | 0.652 ± 0.079 | 0.438 ± 0.04 | 0.323 ± 0.019
6 | 93VU HEADNECK | 1.03 ± 0.062 | 1.09 ± 0.15 | 1.1 ± 0.21 | 1.12 ± 0.063 | 1.11 ± 0.033 | 1.05 ± 0.089 | 0.932 ± 0.051 | 0.936 ± 0.094 | 1.07 ± 0.071 | 1.14 ± 0.11 | 1.07 ± 0.14 | 0.983 ± 0.056 | 0.98 ± 0.084 | 0.925 ± 0.018 | 0.806 ± 0.087 | 0.632 ± 0.053
7 | NCIH441 LUNG | 0.964 ± 0.035 | 0.977 ± 0.13 | 0.99 ± 0.029 | 0.989 ± 0.059 | 0.997 ± 0.04 | 1.07 ± 0.065 | 0.917 ± 0.072 | 0.979 ± 0.092 | 1.11 ± 0.035 | 1.11 ± 0.081 | 1.01 ± 0.039 | 0.872 ± 0.037 | 0.78 ± 0.13 | 0.723 ± 0.1 | 0.584 ± 0.082 | 0.499 ± 0.083
8 | SUM159 BREAST | 1.1 ± 0.27 | 1.17 ± 0.28 | 1.15 ± 0.24 | 1.14 ± 0.2 | 1.11 ± 0.21 | 1.12 ± 0.19 | 1.07 ± 0.14 | 1.08 ± 0.18 | 1.12 ± 0.016 | 1.104 ± 0.0035 | 1.07 ± 0.013 | 1.06 ± 0.011 | 1.079 ± 0.0027 | 1.057 ± 0.0089 | 1.04 ± 0.013 | 0.957 ± 0.031
9 | SJSA1 BONE | 1.03 ± 0.038 | 0.99 ± 0.056 | 1.08 ± 0.066 | 1.1 ± 0.065 | 1.07 ± 0.013 | 1.09 ± 0.024 | 1.03 ± 0.056 | 1.03 ± 0.013 | 1.67 ± 0.078 | 1.72 ± 0.018 | 1.72 ± 0.12 | 1.86 ± 0.1 | 0.969 ± 0.054 | 1.27 ± 0.022 | 1.46 ± 0.06 | 1.12 ± 0.031
10 | MDAMB231 BREAST | 0.973 ± 0.025 | 1 ± 0.03 | 1.01 ± 0.033 | 1.03 ± 0.017 | 0.962 ± 0.024 | 1 ± 0.019 | 0.906 ± 0.022 | 0.875 ± 0.018 | 0.98 ± 0.029 | 0.972 ± 0.02 | 0.898 ± 0.019 | 0.838 ± 0.022 | 0.711 ± 0.053 | 0.639 ± 0.011 | 0.523 ± 0.021 | 0.454 ± 0.03
11 | CME SYNOVIAL | 1.4 ± 0.11 | 1.39 ± 0.21 | 1.39 ± 0.19 | 1.23 ± 0.05 | 1.36 ± 0.22 | 1.31 ± 0.089 | 0.913 ± 0.11 | 0.507 ± 0.034 | 0.831 ± 0.068 | 0.528 ± 0.039 | 0.234 ± 0.018 | 0.211 ± 0.035 | 0.243 ± 0.024 | 0.211 ± 0.012 | 0.201 ± 0.0059 | 0.285 ± 0.0076
12 | T47D BREAST | 1.06 ± 0.042 | 1.04 ± 0.027 | 1.05 ± 0.031 | 1.07 ± 0.016 | 1.06 ± 0.056 | 1.14 ± 0.051 | 1.03 ± 0.036 | 0.997 ± 0.014 | 1.01 ± 0.04 | 0.975 ± 0.036 | 0.872 ± 0.051 | 0.82 ± 0.026 | 0.714 ± 0.019 | 0.654 ± 0.023 | 0.535 ± 0.017 | 0.455 ± 0.0098
13 | MDAMB436 BREAST | 1.01 ± 0.065 | 0.997 ± 0.064 | 0.933 ± 0.063 | 0.965 ± 0.041 | 0.961 ± 0.11 | 0.967 ± 0.071 | 1.04 ± 0.07 | 0.887 ± 0.11 | 0.734 ± 0.039 | 0.66 ± 0.056 | 0.481 ± 0.023 | 0.434 ± 0.031 | 0.413 ± 0.032 | 0.369 ± 0.026 | 0.349 ± 0.032 | 0.332 ± 0.02
14 | CAL51 BREAST | 0.995 ± 0.06 | 1 ± 0.025 | 0.998 ± 0.029 | 1.03 ± 0.068 | 1.02 ± 0.017 | 1.04 ± 0.05 | 1.03 ± 0.043 | 1.03 ± 0.042 | 0.941 ± 0.037 | 0.807 ± 0.065 | 0.548 ± 0.014 | 0.389 ± 0.021 | 0.219 ± 0.026 | 0.146 ± 0.027 | 0.0603 ± 0.01 | 0.0523 ± 0.0019
15 | HOS BONE | 1.008 ± 0.004 | 1.028 ± 0.0032 | 1.06 ± 0.018 | 1.05 ± 0.028 | 1.06 ± 0.026 | 1.047 ± 0.0083 | 0.956 ± 0.017 | 0.89 ± 0.014 | 1.04 ± 0.037 | 1 ± 0.018 | 0.976 ± 0.018 | 0.974 ± 0.036 | 0.993 ± 0.04 | 0.96 ± 0.036 | 0.596 ± 0.022 | 0.282 ± 0.026
16 | 143B BONE | 0.985 ± 0.033 | 0.959 ± 0.086 | 0.928 ± 0.13 | 1.03 ± 0.031 | 0.9995 ± 0.0035 | 0.996 ± 0.052 | 0.999 ± 0.0042 | 0.959 ± 0.023 | 1.08 ± 0.047 | 1.11 ± 0.086 | 1.1 ± 0.054 | 1.09 ± 0.073 | 1.11 ± 0.16 | 1.05 ± 0.064 | 0.733 ± 0.06 | 0.528 ± 0.052
